Data set [1] can be described thus: Antiviral activity against wild type HIV1 BH10 infected human MT4 cells assessed as inhibition of virus-induced cytopathogenicity. Type of data set: functional, cell-based, Human immunodeficiency virus type 1 BH10. The settings on record: Human immunodeficiency virus 1, MT4.
Data set [2] can be described thus: Antiviral activity against wild type HIV1 BH10 with reverse transcriptase K103N/Y181C double mutant infected human MT4 cells assessed as inhibition of virus-induced cytopathogenicity. Type of data set: functional, cell-based, Human immunodeficiency virus type 1 BH10. The settings on record: Human immunodeficiency virus 1, MT4.
A short description of data set [3]: Antiviral activity against wild type HIV1 BH10 with reverse transcriptase Y181C single mutant infected human MT4 cells assessed as inhibition of virus-induced cytopathogenicity. Type of data set: functional, cell-based, Human immunodeficiency virus type 1 BH10. The settings on record: Human immunodeficiency virus 1, MT4.
A short description of data set [4]: Antiviral activity against wild type HIV1 BH10 with reverse transcriptase K103N single mutant infected human MT4 cells assessed as inhibition of virus-induced cytopathogenicity. The settings on record: Human immunodeficiency virus 1, MT4. Type of data set: functional, cell-based, Human immunodeficiency virus type 1 BH10.
A short description of data set [5]: Clearance in rat at 5 mg/kg, po. Type of data set: ADME, organism-based. Further details: dose 5 mg/kg, route oral. As to conditions: in vivo.
Data set [6] is described as follows: Oral bioavailability in rat at 5 mg/kg. Type of data set: ADME, organism-based. The settings on record: in vivo.
The nature of data set [7]: Metabolic stability of the compound in rat hepatocytes assessed as compound remaining after 4 hrs. Type of data set: ADME, cell-based, Hepatocyte. The settings on record: read-out: Stability.
The nature of data set [8]: Metabolic stability of the compound in dog hepatocytes assessed as compound remaining after 4 hrs. Type of data set: ADME, cell-based, Canis lupus familiaris, Hepatocyte. The settings on record: read-out: Stability.
The nature of data set [9]: Half life in rat at 5 mg/kg, po. Type of data set: ADME, organism-based. Set-up: dose 5 mg/kg, route oral. As to conditions: in vivo.
A short description of data set [10]: Metabolic stability of the compound in monkey hepatocytes assessed as compound remaining after 4 hrs. As to conditions: rhesus monkey, read-out: Stability. Type of data set: ADME, cell-based, Macaca mulatta, Hepatocyte.
Data set [11] in a line: Metabolic stability of the compound in human hepatocytes assessed as compound remaining after 4 hrs. Type of data set: ADME, cell-based, Hepatocyte. The settings on record: read-out: Stability.

Take `CO[P@@](=O)(c1ccccc1)c1c(C(N)=O)[nH]c2ccc(Cl)cc12`: the EC50 is 182 nM in [1], more than 1250 nM in data set [2], more than 1250 nM in data set [3] and more than 1250 nM in data set [4].

In the case of `COP(=S)(c1ccccc1)c1c(C(N)=O)[nH]c2ccc(Cl)cc12` (stereo unspecified), the concentration giving a half-maximal response (EC50) is 0.4 nM in [1], more than 1250 nM in data set [2], 41.4 nM in data set [3] and 89.9 nM in data set [4].

Turning to `CP(=O)(c1ccccc1)c1c(C(N)=O)[nH]c2ccc(Cl)cc12` (stereo unspecified), the EC50 in data set [1] was 0.8 nM; in [2] it was more than 1250 nM; in [3], 266 nM; in [4] it was 1380 nM.

For the molecule `CO[P@](=O)(c1ccccc1)c1c(C(N)=O)[nH]c2ccc(Cl)cc12`, the EC50 is 0.1 nM in data set [1], 137 nM in [2], 3.6 nM in data set [3] and 1.2 nM in [4].

Turning to `NC(=O)c1[nH]c2ccc(Cl)cc2c1P(=O)(OCc1ccccc1)c1ccccc1` (stereo unspecified), the 50% effective concentration (EC50) is 33.7 nM in data set [1], more than 1250 nM in data set [2], more than 1250 nM in [3] and more than 1250 nM in [4].

With `NC(=O)c1[nH]c2ccc(Cl)cc2c1P(=O)(c1ccccc1)c1ccccc1`, the 50% effective concentration (EC50) in data set [1] is more than 1250 nM.

In the case of `CN(C)P(=O)(c1ccccc1)c1c(C(N)=O)[nH]c2ccc(Cl)cc12` (stereo unspecified), the concentration giving a half-maximal response (EC50) was 13.9 nM in data set [1], more than 1250 nM in data set [2], 467 nM in data set [3] and more than 1250 nM in [4].

Consider `NC(=O)c1[nH]c2ccc(Cl)cc2c1P(=O)(O)c1ccccc1`, for which the EC50 in data set [1] is more than 1250 nM.

Consider `COP(=O)(c1ccccc1)c1c(C(N)=O)[nH]c2ccc(Cl)cc12` (racemic), for which the CL/F in [5] turned out to be 2.85 mL/min/kg. The bioavailability in data set [6] came to 107%. Further, the remaining at 4 h stood at 100% in [7], 100% in data set [8], 49% in [10] and 99% in data set [11]. Moreover, the concentration giving a half-maximal response (EC50) in data set [1] was 0.7 nM; in [2], 447 nM; in data set [3], 10.1 nM; in [4] it was 6.8 nM. This molecule had a half-life in data set [9] of 1.19 h.

As for `CCOP(=O)(c1ccccc1)c1c(C(N)=O)[nH]c2ccc(Cl)cc12` (stereo unspecified), the EC50 was 1.2 nM in data set [1], more than 1250 nM in data set [2], 13.7 nM in data set [3] and 16.4 nM in data set [4].
